Test results published in patent publication US20170275287A1, “NOVEL N2, N4, N7, 6-TETRASUBSTITUTED PTERIDINE-2,4,7-TRIAMINE AND 2, 4, 6, 7-TETRASUBSTITUTED PTERIDINE COMPOUNDS AND METHODS OF SYNTHESIS AND USE THEREOF” (Janus Biotherapeutics, Inc., priority 2014, published 2017).
Read-outs that look alike come from different tables or passages of the source.

Columns and labels:
TLR9 = target: T1, TLR9 (Mus musculus, UniProt Q9EQU3); assay: In vivo TLR9 knockdown (CpG-DNA challenge, serum cytokines); design: species or system mice
T1 construct: endogenous in cells
T1 sequence (Q9EQU3 26-1032): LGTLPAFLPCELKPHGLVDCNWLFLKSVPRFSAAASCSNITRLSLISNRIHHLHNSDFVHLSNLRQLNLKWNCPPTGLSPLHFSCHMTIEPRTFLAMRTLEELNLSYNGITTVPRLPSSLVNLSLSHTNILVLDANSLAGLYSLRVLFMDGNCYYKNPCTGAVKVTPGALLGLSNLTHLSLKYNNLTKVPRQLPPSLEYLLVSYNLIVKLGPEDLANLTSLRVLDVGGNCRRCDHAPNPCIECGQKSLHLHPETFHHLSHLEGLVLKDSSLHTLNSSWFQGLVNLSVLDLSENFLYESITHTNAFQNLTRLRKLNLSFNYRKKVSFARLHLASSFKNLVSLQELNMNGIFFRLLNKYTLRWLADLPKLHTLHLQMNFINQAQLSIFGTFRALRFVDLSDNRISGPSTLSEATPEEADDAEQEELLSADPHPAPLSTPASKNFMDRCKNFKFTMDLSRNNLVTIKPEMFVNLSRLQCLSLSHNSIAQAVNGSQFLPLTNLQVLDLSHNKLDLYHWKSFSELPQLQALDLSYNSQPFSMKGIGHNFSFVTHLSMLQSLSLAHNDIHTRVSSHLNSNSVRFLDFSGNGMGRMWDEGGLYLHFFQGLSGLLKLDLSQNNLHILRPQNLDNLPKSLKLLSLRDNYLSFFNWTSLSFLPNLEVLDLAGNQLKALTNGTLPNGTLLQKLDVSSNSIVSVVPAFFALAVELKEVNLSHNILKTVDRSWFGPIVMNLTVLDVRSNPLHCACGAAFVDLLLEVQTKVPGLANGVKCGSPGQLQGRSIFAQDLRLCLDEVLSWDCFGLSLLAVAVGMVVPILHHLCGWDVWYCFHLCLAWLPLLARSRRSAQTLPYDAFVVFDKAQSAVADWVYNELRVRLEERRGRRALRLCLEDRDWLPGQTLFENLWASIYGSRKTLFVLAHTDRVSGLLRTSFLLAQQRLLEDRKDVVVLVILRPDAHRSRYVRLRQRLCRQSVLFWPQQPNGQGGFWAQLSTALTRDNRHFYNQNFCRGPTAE
Method: Mice were treated with test antagonist at varying doses at T=0 hr. Agonist treatment (CpG-DNA) dosed one hour later, T=1 hr for IP groups and two hours later, T=2 hr for PO groups. Necropsy performed 3 hours post agonist treatment, T=4 hr (IP groups) or T=5 hr (PO groups). Serum cytokines induced by the TLR agonist are measured by ELISA. Groups size per dose, n=3. The mean+/−SD of two independent ELISA's at differing serum dilutions is plotted.

[1] = Metabolic stability, human liver microsomes (CEREP); type: in vitro ADME
Method: (§1) Preliminary screening measures were conducted by CEREP. All values fall within acceptable limits (Table 5). Solubility assays where performed by CEREP, Seattle, Wash., according to Lipinski, C. A. et al., 1997, Adv. Drug Del. Rev., 46:3-26. Protein binding assays where performed by CEREP, Seattle, Wash., according to Banker, M. J. et al., 2003, J. Pharm. Sci., 92:967-974. Permeability assays where performed by CEREP, Seattle, Wash. according to Hildalgo, I. J., 1998, Gastroenterology, 96:736-749. Metabolic stability assays where performed by CEREP, Seattle, Wash., according to Obach, R. S. et al., 1997, J. Pharmacol. Exp. Ther., 283:46-58. P-glycoprotein inhibition assays where performed by CEREP, Seattle, Wash., according to Polli, J. W. et al., 2001, J. Pharm. Exp. Ther., 299:620-628. Cell viability assays where performed by CEREP, Seattle, Wash., according to Mosmann, T., 1983, J. Immunol. Met. 65:55-62. hERG automated patch clamp assays where performed by CEREP, Seattle, Wash., according to Mathes, C., 2006, Expert Opin. Ther. Targets, 10:230-241.

Hep-G2 cells = assay: Cell viability, Hep-G2 cells (CEREP); type: cell-based
Method: as §1

[2] = Pharmacokinetic study in rats, IV and PO, whole blood (Charles River); type: in vivo, Sprague-Dawley rats
Method: A pharmacokinetic study was performed by Charles River Wilmington Mass., in rats and the doses where 2 mg/kg IV and 10 mg/kg PO and whole blood levels were measured for 72 h. The calculated pharmacokinetic parameters for 24 h are given below in Table 8.
Six (6) male Sprague-Dawley rats were selected from the Testing Facility's rodent colony. The animals were enrolled in the study based on acceptable health as determined by a Testing Facility veterinarian and based on patency of femoral and jugular vein catheters. Fasting was performed for at least 16 hours prior to dosing. Food was also withheld until after the 4 hour time point collection. The animals were placed into 2 groups of 3 animals per group. Each animal in Group 1 received prepared JB6121 by intravenous dose administration at a target dose level of 2 mg/kg and at a dose volume of 1 mL/kg. Immediately following intravenous dosing, the inter-dwelling catheter was flushed with 0.5 mL of saline. Each animal in Group 2 received prepared JB6121 by oral gavage dose administration at a target dose level of 10 mg/kg and at a dose volume of 10 mL/kg.
Whole blood samples (0.300 mL; K2EDTA anticoagulant) were collected from each animal through a jugular vein catheter. Whole blood samples were collected from all animals at 30 minutes and at 1, 2, 4, 6, 12, 24, 48, and 72 hours after dose administration.
Whole blood samples were transferred to the Charle River Bioanalytical Sciences Laboratory, Wilmington Mass., for analysis. Pharmacokinetic parameters were estimated using Watson pharmacokinetic software (Version No. 7.2) using a non-compartmental approach consistent with the IV or PO route of administration.

five bacterial strains = assay: Non-GLP AMES test (BioRelience); details: five bacterial strains plus or minus S9 fraction to 5000 μg
Method: A non-GLP AMES test study was performed by BioRelience Inc, MD according to Maron, D. M. and Ames, B. N., 1983, Mutation Res., 113:173-215. The test was performed in five bacterial strains plus or minus S9 fraction to 5000 μg.

[3] = male, Sprague-Dawley, whole blood, Rat, PO 10.0 mg/kg

With `CN1CCN(c2nc(NCCN3CCOCC3)c3nc(Cl)c(NCCN4CCOCC4)nc3n2)CC1` [JB6121, 6-chloro-2-(4-methylpiperazin-1-yl)-N^4,N^7-bis(2-morpholinoethyl)pteridine-4,7-diamine] the “ID50, TLR9 knockdown, IP injection” value (TLR9; mice, IP, CpG-DNA 1 h later) was 55.27 μg injection dose, the “ID50, TLR9 knockdown, PO gavage” value (TLR9; mice, PO, CpG-DNA 2 h later) was 59.99 μg delivery dose and the ED50 (TLR9; mouse, translated for a 25 gram mouse, read-out: ID50, TLR9 knockdown) was ~2.4 mg/kg. The “Metabolic Stability, Human Liver Microsomes at 60 min. % remaining” value [1] was 75%, the “Cell Viability, Hep-G2 cells, % inhibition at 100 μM” value (Hep-G2 cells) was 8.5% and the AUC ([2]; male, Sprague-Dawley, rat, whole blood, iv, 2 mg/kg, Rat, IV 2.0 mg/kg, read-out: AUC) was 2040 ng·h/mL. For the same compound, the AUC ([2]; male, Sprague-Dawley, rat, whole blood, iv, 2 mg/kg, Rat, IV 2.0 mg/kg, read-out: AUC Extrap) was 2230 ng·h/mL, the bioavailability ([2]; male, Sprague-Dawley, rat, whole blood, oral, 10 mg/kg, summary statement, read-out: in vivo bioavailability) was > 20% and the AUC ([2]; male, Sprague-Dawley, rat, whole blood, po, 10 mg/kg, Rat, PO 10.0 mg/kg, read-out: AUC) was 2100 ng·h/mL. The AUC ([2]; male, Sprague-Dawley, rat, whole blood, po, 10 mg/kg, Rat, PO 10.0 mg/kg, read-out: AUC Extrap) was 2310 ng·h/mL, the clearance ([2]; male, Sprague-Dawley, whole blood, Rat, IV 2.0 mg/kg) was 16.4 mL/min/kg and the Vd ([2]; male, Sprague-Dawley, whole blood, Rat, IV 2.0 mg/kg, read-out: Vdss) was 21.6 L/kg. It also gave a Cmax [2, 3] of 149 ng/mL, a Tmax [2, 3] of 3.33 h and a bioavailability ([2]; male, Sprague-Dawley, whole blood, Rat, PO 10.0 mg/kg, read-out: Bioavailability) of 20.6%. For the same compound, the half-life ([2]; male, Sprague-Dawley, Rat, IV 2.0 mg/kg, whole blood, 24 h, read-out: T½ (converted)) was 9.71 h, the “clinically relevant abnormalities during dosing and sampling” value ([2]; rats, 2 mg/kg IV and 10 mg/kg PO) was “no abnormalities were noted” and the AMES test (five bacterial strains) was “no toxicity”.
